# Reference: PubChem BioAssay (NCI)
# Values joined by “and” are separate entries in the source; they are usually repeats but may differ in a detail not shown here. Equal entries are not always repeated.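 Cultured in 96-well plates, cells were exposed to test compound for 48 hours across five concentrations. The concentration for 50% growth inhibition is given as GI50. TGI: total growth inhibition.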 *1 amine or outer side, *2 acyl side, *3 side chain or, on linkers, in order; H or OH if unused. Where a SMILES comes first, the peptide text is derived from it. Bridges are numbered along the chain shown (N, C = ends). [ ]: non-standard residue; d: D form. ξ: configuration not given here. X4 = CCC(C)C(N[*:1])C(O)CC(=O)O[C@H](C(=O)C(C)C(=O)[*:2])C(C)C; NMeY = CN[C@@H](Cc1ccc(O)cc1)C(=O)O; X9 = O=C([C@@H]1CC(O)CN1[*:1])[*:2]; ξNMeL = CNC(CC(C)C)C(=O)O; ξT = CC(O)C(N)C(=O)O
# Tests used:
# Assay in all cases: NCI anticancer screen, dose series, 48 h
# [1] = tested on: CCRF-CEM leukemia
# [2] = tested on: U251 CNS
# [3] = tested on: CAKI-1 renal
# [4] = tested on: HL-60(TB) leukemia
# [5] = tested on: RPMI-8226 leukemia
# [6] = tested on: HOP-92 NSCLC
# [7] = tested on: MOLT-4 leukemia
# [8] = tested on: HCT-116 colon
Structure (SMILES),GI50 [1],TGI [1],GI50 [2],TGI [2],GI50 [3],TGI [3],GI50 [4],TGI [4],GI50 [5],TGI [5],GI50 [6],TGI [6],GI50 [7],TGI [7],GI50 [8],TGI [8]
CNC(=O)c1cc(Oc2ccc3nc(NC(=O)Nc4ccc(Cl)c(Cl)c4)sc3c2)ccn1,> 100 µM,> 100 µM,1.83 µM,3.46 µM,2.46 µM,6.3 µM,> 100 µM,> 100 µM,3.66 µM,> 100 µM,2.66 µM,5.39 µM,> 100 µM,> 100 µM,1.88 µM,4.35 µM
CCOC(=O)C1CCC/C1=N\N=C(N)N (stereo unspecified) (tested in a mixture with another compound),,> 100 µM,,> 100 µM,,,,> 100 µM,,> 100 µM,,,,> 100 µM,,> 100 µM
OCCNc1nc(NCCO)nc(Nc2ccc(C3=NN(c4cc(Cl)cc(Cl)c4)C(c4ccc(Cl)cc4)C3)cc2)n1 (stereo unspecified),2.11 µM,5.46 µM,1.51 µM,3.04 µM,,,1.86 µM,3.85 µM,1.91 µM,4.85 µM,2.04 µM,4.42 µM,1.52 µM,4.02 µM,1.59 µM,3.05 µM
CC(=O)OCC(=O)[C@@]1(O)[C@H](C)C[C@H]2[C@@H]3C=C(C)C4=Cc5c(cnn5-c5ccc(F)cc5)C[C@]4(C)[C@H]3[C@@H](O)C[C@@]21C,< 0.0158 µM,,1.25 µM,3.27 µM,2.57 µM,10 µM,4.1 µM,9.02 µM,0.161 µM,1.14 µM,,5.87 µM,1.94 µM,6.76 µM,1.66 µM,3.5 µM
C#Cc1cccc(NC(=O)Nc2ccc(NC(=O)CCl)cc2)c1,9.55 µM,26.9 µM,15.1 µM,35.2 µM,15.7 µM,36.2 µM,14.9 µM,33.4 µM,10.8 µM,28.5 µM,,,9.6 µM,33.2 µM,20.1 µM,> 82.5 µM
CC1(C)OC2C(CO)OC(n3ccc(=O)[nH]c3=O)C2O1 (stereo unspecified),,> 100 µM,,> 100 µM,,> 100 µM,,> 100 µM,,> 100 µM,,> 100 µM,,> 100 µM,,> 100 µM
O=C1N=C2c3c(sc4c3CCCC4)N=CN2C1N=Nc1ccc(Cl)cc1 (stereo unspecified),13.8 µM,87.9 µM,20.2 µM,> 100 µM,30.9 µM,> 100 µM,,,3.2 µM,27.6 µM,1.95 µM,20.2 µM,13 µM,53 µM,17.8 µM,> 100 µM
C[C@]12CC[C@H]3[C@@H](CCC4=CC(=O)CC[C@@H]43)[C@@H]1CC[C@@H]2OC1(O)C(=O)c2ccccc2C1=O,,> 100 µM,,> 100 µM,,> 100 µM,,,,80 µM,,> 100 µM,,92.8 µM,,30.1 µM
CC(C)(C)Cn1c(N)nc2ccc(-c3[nH]c(C(C)(C)C)nc3-c3ccc(F)cc3)nc21,12.6 µM,> 63 µM,10.8 µM,25.2 µM,3.91 µM,21.1 µM,19.9 µM,81.4 µM,3.29 µM,28.4 µM,3.41 µM,26.3 µM,7.7 µM,36.9 µM,6.75 µM,23 µM
CC1(C)CCSC(/C=C/c2ccccc2)=N1,,> 100 µM,,34.3 µM,,32.3 µM,,> 100 µM,,62.6 µM,,35.9 µM,,> 100 µM,,26.7 µM
COc1cc(N2CCC(N(C)C)CC2)ccc1Nc1ncc(Cl)c(Nc2ccccc2P(C)(C)=O)n1,,> 100 µM,1.42 µM and 0.713 µM,9.94 µM and > 10 µM,3.24 µM and 0.326 µM,10.5 µM and > 4.56 µM,1.25 µM and 0.168 µM,11.6 µM and > 5.33 µM,3.85 µM and 2.05 µM,21.7 µM and > 7.1 µM,0.0882 µM,0.918 µM,4.05 µM and 1.16 µM,> 100 µM,1.4 µM and 0.183 µM,> 39.2 µM
CCCCCC(=O)N1c2ccccc2NC2=C(C(=O)CC(c3ccc(OC)c(OC)c3)C2)C1c1ccc(C(F)(F)F)cc1 (stereo unspecified),> 100 µM,> 100 µM,> 100 µM,> 100 µM,35.6 µM,> 100 µM,> 100 µM,> 100 µM,5.98 µM,> 100 µM,12.2 µM,> 100 µM,8.9 µM,> 100 µM,72.1 µM,> 100 µM
Cc1ccc(NC(=O)c2ccnc(C(F)(F)F)c2)cc1-c1cc(OCCO)nc(N2CCOCC2)c1,3.33 µM,> 100 µM,4.7 µM,28.8 µM,1.62 µM,38.7 µM,1.05 µM,6.51 µM,2.7 µM,> 100 µM,0.196 µM,4.78 µM,3.5 µM,> 100 µM,0.7 µM,> 100 µM
CCCCCCC(C)CC(CCCCCC)NCCOC(=O)c1ccc([N+](=O)[O-])cc1 (stereo unspecified),,12.6 µM and 18.3 µM,,29.2 µM and 25.2 µM,12.2 µM and 4.21 µM,25.3 µM and 18.4 µM,,,,24 µM and 30.2 µM,,23.9 µM and 23 µM,,,,28.1 µM and 24.1 µM
O=c1c2cc(Br)ccc2oc2ccc(Br)cc12,,> 100 µM,,> 100 µM,,> 100 µM,,> 100 µM,,> 100 µM,,> 100 µM,,> 100 µM,,> 100 µM
OCCN(CO)CN(CN(CO)CCO)c1nc(N(CN(CO)CCO)CN(CO)CCO)nc(N(CN(CO)CCO)CN(CO)CCO)n1,0.55 ng/mL,2.52 ng/mL,,,,,0.55 ng/mL,0.859 ng/mL,0.55 ng/mL,0.55 ng/mL,1.56 ng/mL,3.6 ng/mL,1.51 ng/mL,4.49 ng/mL,,
COc1cc(C)cc2c1OC(c1ccccc1)CC2=O (stereo unspecified),> 100 µM,> 100 µM,> 100 µM,> 100 µM,> 100 µM,> 100 µM,> 100 µM,> 100 µM,,,,,> 100 µM,> 100 µM,> 100 µM,> 100 µM
COC(=O)C1=CN(CC2=CC(=O)C(C)=CC2=O)C=C(C(=O)OC)C1c1cccc(OC)c1OC,12.5 µM,77.9 µM,18.6 µM,50.2 µM,10.9 µM,29.7 µM,5.07 µM,14.1 µM,3.09 µM,10.9 µM,2.68 µM,17.1 µM,3.28 µM,9.68 µM,18.5 µM,36.7 µM

Structure (SMILES),GI50 [1],TGI [1],GI50 [2],TGI [2],GI50 [3],TGI [3],GI50 [4],TGI [4],GI50 [5],TGI [5],GI50 [6],TGI [6],GI50 [7],TGI [7],GI50 [8],TGI [8]
O=C(O)CC(Cc1ccc2c(c1)OCO2)C(=O)O (stereo unspecified),,> 100 µM,,> 100 µM,,,,> 100 µM,,> 100 µM,,> 100 µM,,> 100 µM,,> 100 µM
N#C/C(=C\c1cn(-c2ccccc2)c2ccccc12)C(=O)O,99 µM,> 100 µM,35 µM,> 100 µM,63.1 µM,> 100 µM,,,43 µM,> 100 µM,33.9 µM,> 100 µM,72.8 µM,> 100 µM,34.7 µM,> 100 µM
[N-]=[N+]=Nc1ncc(-c2ccc(C(F)(F)F)cc2)c(NC2CCCCCC2)n1,> 10 µM,> 10 µM,> 10 µM,> 10 µM,> 10 µM,> 10 µM,> 10 µM,> 10 µM,> 10 µM,> 10 µM,,,> 10 µM,> 10 µM,> 10 µM,> 10 µM
O=C(Oc1ccccc1)c1cc(O)c(O)c(O)c1,1.28 µM,> 100 µM,10.7 µM,> 100 µM,15.4 µM,> 100 µM,1.43 µM,7.12 µM,11.4 µM,> 100 µM,8.75 µM,81.4 µM,2.23 µM,26.2 µM,11.7 µM,> 100 µM
Cn1c2ccccc2c2c(=O)n(CCCC(=O)NCC(=O)OC(=NC3CCCCC3)NC3CCCCC3)c3c(-c4ccccc4)nnn3c21,8.36 µM,57.7 µM,12.4 µM,38.3 µM,32.1 µM,> 100 µM,2.86 µM,8.31 µM,4.26 µM,21.2 µM,,,14.5 µM,> 100 µM,14.3 µM,42.7 µM
COc1ccc2c(c1)[nH]c(=O)c1c3cccnc3cn21,0.0437 µM,> 100 µM,0.041 µM,12.2 µM,0.0405 µM,14.7 µM,0.0262 µM,1.21 µM,0.0596 µM,32.4 µM,,,0.0675 µM,> 100 µM,0.0496 µM,14.3 µM
CC1CCC2(OC1)OC1CC3C4CC=C5CC(OC6OC(CO)C(OC7OC(C)C(OC8OC(C)C(O)C(O)C8O)C(O)C7O)C(O)C6OC6OC(C)C(O)C(O)C6O)CCC5(C)C4CCC3(C)C1C2C (stereo unspecified),,,,1.96 µM,,2.55 µM,,,,,,1.9 µM,,0.958 µM,,1.92 µM
Nc1cc(N)c2nc(-c3ccccc3)c(Nc3ccc(F)cc3)nc2c1,,,5.65 µM,20 µM,19.2 µM,40.4 µM,11.3 µM,> 100 µM,4.64 µM,34.6 µM,13.1 µM,43.6 µM,> 100 µM,> 100 µM,20.1 µM,> 100 µM
CCCCCCCCCCCCCCCCC(C(=O)O)C(O)(CC(=O)O)C(=O)O (stereo unspecified),,79.2 µM,,33.1 µM,,46.3 µM,,34.4 µM,,74.8 µM,,,,61.6 µM,,36.3 µM
O=C(CNC(=O)c1cccc2ccccc12)Nc1ccccc1Oc1cccc(O)c1,4.17 µM,> 25 µM,8.41 µM,> 25 µM,,,1.31 µM,10.6 µM,8.04 µM,> 25 µM,> 25 µM,> 25 µM,4.84 µM,> 25 µM,1.36 µM,> 25 µM
O=c1cc/c(=N\Nc2ccccc2)c(=O)/c1=N/Nc1ccccc1,> 50 µM,> 50 µM,> 50 µM,> 50 µM,> 50 µM,> 50 µM,> 50 µM,> 50 µM,,,> 50 µM,> 50 µM,> 50 µM,> 50 µM,> 50 µM,> 50 µM
CC1C(=O)N=C2C(=CN(Cc3ccccc3)c3ccccc32)C(=O)N1C (stereo unspecified),,> 100 µM,,> 100 µM,,> 100 µM,,,,> 100 µM,,> 100 µM,,,,> 100 µM
COc1n[n+]([O-])c(C)cc1[N+](=O)[O-],,,16.8 µM,34.5 µM,4.84 µM,19.1 µM,,,2.73 µM,19.1 µM,16.2 µM,35.2 µM,10.7 µM,35.1 µM,10.2 µM,23.9 µM
Clc1nc(Cl)c2ncn(C/C=C\Cn3cnc4c(Cl)nc(Cl)nc43)c2n1,0.739 µM,2.36 µM,3.5 µM,10.6 µM,1.16 µM,2.41 µM,3.64 µM,> 100 µM,,,,,2.05 µM,4.11 µM,1.48 µM,3.26 µM
CCCCCCN1C(=O)/C(=c2\sc3n(c2=O)C2C(NN=3)N(CC)C(=O)N2CC)c2ccccc21 (stereo unspecified),2.5 µM,> 50 µM,,,1.82 µM,> 50 µM,1.96 µM,43.9 µM,2.57 µM,> 50 µM,,,3.96 µM,> 50 µM,,
COc1ccc(C2=NNC(c3ccc(-c4ccc(OC)cc4[N+](=O)[O-])o3)C2)cc1 (stereo unspecified),70 µM,> 100 µM,19.4 µM,50.3 µM,,,71.7 µM,> 100 µM,36.8 µM,> 100 µM,15.1 µM,81 µM,31 µM,> 100 µM,22.8 µM,> 100 µM
CCC(C)C1NC(=O)C(NC(=O)C(CC(C)C)N(C)C(=O)[C@@H]2CC(O)CN2)C(C)OC(=O)[C@H](Cc2ccc(OC)cc2)N(C)C(=O)[C@@H]2CCCN2C(=O)[C@H](CC(C)C)NC(=O)C(C)C(=O)[C@H](C(C)C)OC(=O)CC1O (stereo partly specified) (H-[X9][ξNMeL][ξT][X4]LP[NMeY](Me); ester 3-C),,,,0.335 µM and 1.01 µM,0.151 µM,2.65 µM,0.035 µM,,0.0103 µM,,,0.242 µM and 0.0658 µM,,0.0426 µM and 0.0387 µM,,
